PMC6036132, “In Silico Workflow for the Discovery of Natural Products Activating the G Protein-Coupled Bile Acid Receptor 1” (Frontiers in Chemistry, 2018)

Target: T1, G protein-coupled bile acid receptor 1 (GPBAR1) (Homo sapiens, UniProt Q8TDU6)
T1 construct: full-length GPBAR1 expression plasmid (Origene), transiently transfected in HEK 293T cells with CRE-Luc and EGFP plasmids
T1 sequence (Q8TDU6 1-330): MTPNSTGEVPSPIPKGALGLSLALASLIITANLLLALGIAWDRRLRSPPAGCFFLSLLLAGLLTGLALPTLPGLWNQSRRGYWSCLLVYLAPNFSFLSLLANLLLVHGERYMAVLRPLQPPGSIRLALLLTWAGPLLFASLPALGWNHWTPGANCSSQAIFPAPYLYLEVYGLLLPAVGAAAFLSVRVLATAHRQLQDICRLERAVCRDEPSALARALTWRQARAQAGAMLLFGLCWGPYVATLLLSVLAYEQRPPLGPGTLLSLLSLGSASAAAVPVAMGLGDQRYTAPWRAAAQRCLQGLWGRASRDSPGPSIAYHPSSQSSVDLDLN
Assay: CRE-luciferase reporter assay in transfected HEK […] cells, EGFP-normalised
Assay type: cell-based
Settings: agonist; 18 h; relative to 10 μM LCA = 100%

Structure (SMILES): C[C@H](CCC(=O)O)[C@H]1CC[C@H]2[C@@H]3[C@H](O)C[C@@H]4C[C@H](O)CC[C@]4(C)[C@H]3CC[C@]12C [compound 3, chenodeoxycholic acid]
- Activity (at 5 μM): 66.69 ± 8.72%
